Consider three substances from patent US10738094B2, “Peptides and combination of peptides for use in immunotherapy against ovarian cancer and other cancers” (immatics biotechnologies GmbH, priority 2015, dated 2020).

One assay concerns CD8+ T cells. The assay can be described thus: In vitro immunogenicity for MHC class I presented peptides (priming of CD8+ T cells with aAPCs, pMHC multimer staining). The format is cell-based, human. Particulars: HLA-A*02 restricted peptides; positive wells among evaluable. The text has this:
In order to obtain information regarding the immunogenicity of the TUMAPs of the present invention, the inventors performed investigations using an in vitro T-cell priming assay based on repeated stimulations of CD8+ T cells with artificial antigen presenting cells (aAPCs) loaded with peptide/MHC complexes and anti-CD28 antibody.
In order to perform in vitro stimulations by artificial antigen presenting cells loaded with peptide-MHC complex (pMHC) and anti-CD28 antibody, the inventors first isolated CD8+ T cells from fresh HLA-A*02 leukapheresis products via positive selection using CD8 microbeads (Miltenyi Biotec, Bergisch-Gladbach, Germany) of healthy donors obtained from the University clinics Mannheim, Germany, after informed consent.
PBMCs and isolated CD8+ lymphocytes were incubated in T-cell medium (TCM) until use consisting of RPMI-Glutamax (Invitrogen, Karlsruhe, Germany) supplemented with 10% heat inactivated human AB serum (PAN-Biotech, Aidenbach, Germany), 100 U/ml Penicillin/100 μg/ml Streptomycin (Cambrex, Cologne, Germany), 1 mM sodium pyruvate (CC Pro, Oberdorla, Germany), 20 μg/ml Gentamycin (Cambrex). 2.5 ng/ml IL-7 (PromoCell, Heidelberg, Germany) and 10 U/ml IL-2 (Novartis Pharma, Nürnberg, Germany) were also added to the TCM at this step.
Generation of pMHC/anti-CD28 coated beads, T-cell stimulations and readout was performed in a highly defined in vitro system using four different pMHC molecules per stimulation condition and 8 different pMHC molecules per readout condition.
The purified co-stimulatory mouse IgG2a anti human CD28 Ab 9.3 (Jung et al., 1987) was chemically biotinylated using Sulfo-N-hydroxysuccinimidobiotin as recommended by the manufacturer (Perbio, Bonn, Germany). Beads used were 5.6 μm diameter streptavidin coated polystyrene particles (Bangs Laboratories, Illinois, USA).
pMHC used for positive and negative control stimulations were A*0201/MLA-001 (peptide […] (SEQ ID NO. 664) from modified Melan-A/MART-1) and A*0201/DDX5-001 ([…] from DDX5, SEQ ID NO. 665), respectively.
800,000 beads/200 μl were coated in 96-well plates in the presence of 4×12.5 ng different biotin-pMHC, washed and 600 ng biotin anti-CD28 were added subsequently in a volume of 200 μl. Stimulations were initiated in 96-well plates by co-incubating […] CD8+ T cells with 2×10^5 washed coated beads in 200 μl TCM supplemented with 5 ng/ml IL-12 (PromoCell) for 3 days at 37° C. Half of the medium was then exchanged by fresh TCM supplemented with 80 U/ml IL-2 and incubating was continued for 4 days at 37° C. This stimulation cycle was performed for a total of three times. For the pMHC multimer readout using 8 different pMHC molecules per condition, a two-dimensional combinatorial coding approach was used as previously described (Andersen et al., 2012) with minor modifications encompassing coupling to 5 different fluorochromes. Finally, multimeric analyses were performed by staining the cells with Live/dead near IR dye (Invitrogen, Karlsruhe, Germany), CD8-FITC antibody clone SK1 (BD, Heidelberg, Germany) and fluorescent pMHC multimers. For analysis, a BD LSRII SORP cytometer equipped with appropriate lasers and filters was used. Peptide specific cells were calculated as percentage of total CD8+ cells. Evaluation of multimeric analysis was done using the FlowJo software (Tree Star, Oreg., USA). In vitro priming of specific multimer+ CD8+ lymphocytes was detected by comparing to negative control stimulations.
Exemplary flow cytometry results after TUMAP-specific multimer staining for two peptides of the invention are shown in FIG. 3 together with corresponding negative controls.

The next assay has as its target HLA-A*02:01 (Homo sapiens, UniProt P04439, D140Y/D185E/D98H/E176V/E277Q/G131W/G231S/I119V/I121R/I166T/I218V/L300P/L318F/N151K/N90K/P208A/P217A/Q86G/Q94H/R138H/R169H/T345S). The assay can be described thus: MHC binding assay (UV-ligand exchange, beta2m ELISA). The note with it: binding to HLA-A*02:01 ranged by peptide exchange yield (UV-ligand exchange, β2m ELISA). A digest of the protocol: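 UV-cleavable ligand in peptide-MHC complexes was exchanged for test peptide. Exchange yield came from an ELISA on streptavidin-captured complexes diluted 100 fold, detecting β2m with HRP anti-β2m (2 ug/ml, 1 h, 37° C.), TMB, A450.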
In general terms: In an ELISA, binding on a coated surface is turned into a signal by an enzyme label.

For “166 (YLNHLEPPV; listed as Homo sapiens) [compound 166]”, the “Wells positive [%]” value in the assay on CD8+ T cells is on record as ““++++” (>=70% = ++++)”. In the assay with HLA-A*02:01, the Peptide exchange entry was ““+++” (≥50 = +++)”.

Turning to “113 (GLLPTPLFGV; listed as Homo sapiens) [compound 113]”, the “Wells positive [%]” value in the assay with CD8+ T cells was ““+” (<20% = +)”. For the same substance, the Peptide exchange entry in the assay with HLA-A*02:01 was ““+++” (≥50 = +++)”.

For the substance “11 (KIFEMLEGV; listed as Homo sapiens) [compound 11]”, in the assay on CD8+ T cells, the “Wells positive [%]” value is listed as ““+” (<20% = +)”. Moreover, the Peptide exchange entry in the assay with HLA-A*02:01 is listed as ““+++” (≥50 = +++)”.
